Assay results reported in ChEMBL document CHEMBL4308841, “Synthesis, in vitro antiproliferative activity, and kinase inhibitory effects of pyrazole-containing diarylureas and diarylamides” (Eur J Med Chem, 2018).

Assays:
KM12 = experiment: Growth inhibition of human KM12 cells assessed as cell growth at 1 uM incubated for 48 hrs by sulforhodamine B assay relative to control; type: functional; settings: KM12, 48 h, read-out: Activity
M14 = experiment: Growth inhibition of human M14 cells assessed as cell growth at 0.01 uM incubated for 48 hrs by sulforhodamine B assay relative to control; type: functional; settings: M14, 48 h, read-out: Activity
RPMI-8226 = experiment: Growth inhibition of human RPMI8226 cells assessed as cell growth at 0.1 uM incubated for 48 hrs by sulforhodamine B assay relative to control; type: functional; settings: RPMI-8226, 48 h, read-out: Activity
IGROV-1 = experiment: Growth inhibition of human IGROV1 cells assessed as cell growth at 1 uM incubated for 48 hrs by sulforhodamine B assay relative to control; type: functional; settings: IGROV-1, 48 h, read-out: Activity
SK-MEL-2 = experiment: Growth inhibition of human SK-MEL-2 cells assessed as cell growth at 0.1 uM incubated for 48 hrs by sulforhodamine B assay relative to control; type: functional; settings: SK-MEL-2, 48 h, read-out: Activity
Malme-3M = experiment: Growth inhibition of human MALME-3M cells assessed as cell growth at 0.1 uM incubated for 48 hrs by sulforhodamine B assay relative to control; type: functional; settings: read-out: Activity
BT-549 = experiment: Growth inhibition of human BT549 cells assessed as cell growth at 0.01 uM incubated for 48 hrs by sulforhodamine B assay relative to control; type: functional; settings: BT-549, 48 h, read-out: Activity
CCRF-CEM [1] = experiment: Growth inhibition of human CCRF-CEM cells assessed as cell growth at 0.01 uM incubated for 48 hrs by sulforhodamine B assay relative to control; type: functional; settings: read-out: Activity
UACC-62 [2] = experiment: Growth inhibition of human UACC62 cells assessed as cell growth at 0.01 uM incubated for 48 hrs by sulforhodamine B assay relative to control; type: functional; settings: UACC-62, 48 h, read-out: Activity
UACC-62 [3] = experiment: Growth inhibition of human UACC62 cells assessed as cell growth at 100 uM incubated for 48 hrs by sulforhodamine B assay relative to control; type: functional; settings: UACC-62, 48 h, read-out: Activity
SNB-19 = experiment: Growth inhibition of human SNB19 cells assessed as cell growth at 100 uM incubated for 48 hrs by sulforhodamine B assay relative to control; type: functional; settings: SNB-19, 48 h, read-out: Activity
COLO 205 = experiment: Growth inhibition of human COLO205 cells incubated for 48 hrs by sulforhodamine B assay; type: functional, cell-based; settings: COLO 205, 48 h
OVCAR-8 = experiment: Growth inhibition of human OVCAR8 cells assessed as cell growth at 1 uM incubated for 48 hrs by sulforhodamine B assay relative to control; type: functional; settings: OVCAR-8, 48 h, read-out: Activity
SF-268 [4] = experiment: Growth inhibition of human SF268 cells assessed as cell growth at 100 uM incubated for 48 hrs by sulforhodamine B assay relative to control; type: functional; settings: SF-268, 48 h, read-out: Activity
LOX IMVI = experiment: Growth inhibition of human LOXIMVI cells assessed as cell growth at 0.1 uM incubated for 48 hrs by sulforhodamine B assay relative to control; type: functional; settings: read-out: Activity
OVCAR-4 [5] = experiment: Growth inhibition of human OVCAR4 cells assessed as cell growth at 0.1 uM incubated for 48 hrs by sulforhodamine B assay relative to control; type: functional; settings: OVCAR-4, 48 h, read-out: Activity
PC-3 = experiment: Growth inhibition of human PC3 cells assessed as cell growth at 0.01 uM incubated for 48 hrs by sulforhodamine B assay relative to control; type: functional; settings: PC-3, 48 h, read-out: Activity
OVCAR-4 [6] = experiment: Growth inhibition of human OVCAR4 cells incubated for 48 hrs by sulforhodamine B assay; type: functional, cell-based; settings: OVCAR-4, 48 h
NCI-H522 = experiment: Growth inhibition of human NCI-H522 cells incubated for 48 hrs by sulforhodamine B assay; type: functional, cell-based; settings: NCI-H522, 48 h
CCRF-CEM [7] = experiment: Growth inhibition of human CCRF-CEM cells assessed as cell growth at 100 uM incubated for 48 hrs by sulforhodamine B assay relative to control; type: functional; settings: read-out: Activity
U-251 [8] = experiment: Growth inhibition of human U251 cells assessed as cell growth at 0.1 uM incubated for 48 hrs by sulforhodamine B assay relative to control; type: functional; settings: U-251, 48 h, read-out: Activity
U-251 [9] = experiment: Growth inhibition of human U251 cells assessed as cell growth at 100 uM incubated for 48 hrs by sulforhodamine B assay relative to control; type: functional; settings: U-251, 48 h, read-out: Activity
K562 = experiment: Growth inhibition of human K562 cells incubated for 48 hrs by sulforhodamine B assay; type: functional, cell-based; settings: K562, 48 h
SF-268 [10] = experiment: Growth inhibition of human SF268 cells incubated for 48 hrs by sulforhodamine B assay; type: functional, cell-based; settings: SF-268, 48 h
OVCAR-5 [11] = experiment: Growth inhibition of human OVCAR5 cells assessed as cell growth at 100 uM incubated for 48 hrs by sulforhodamine B assay relative to control; type: functional; settings: OVCAR-5, 48 h, read-out: Activity
UACC-62 [12] = experiment: Growth inhibition of human UACC62 cells incubated for 48 hrs by sulforhodamine B assay; type: functional, cell-based; settings: UACC-62, 48 h
OVCAR-5 [13] = experiment: Growth inhibition of human OVCAR5 cells incubated for 48 hrs by sulforhodamine B assay; type: functional, cell-based; settings: OVCAR-5, 48 h
HCT-116 = experiment: Growth inhibition of human HCT116 cells assessed as cell growth at 100 uM incubated for 48 hrs by sulforhodamine B assay relative to control; type: functional; settings: HCT-116, 48 h, read-out: Activity
SK-MEL-28 = experiment: Growth inhibition of human SK-MEL-28 cells assessed as cell growth at 100 uM incubated for 48 hrs by sulforhodamine B assay relative to control; type: functional; settings: SK-MEL-28, 48 h, read-out: Activity
[14] = read-out: LC50 (the source's name)
[15] = read-out: pLC50 (the source's name) (converted)

## COc1cc(Cl)cc(-c2nn(-c3cccc(NC(=O)c4cccc(C(F)(F)F)c4)c3)cc2-c2ccncc2)c1
KM12
  growth at 1 µM: 56%
M14
  growth at 0.01 µM: 101%
RPMI-8226
  growth at 0.1 µM: 97%
IGROV-1
  growth at 1 µM: 94%
SK-MEL-2
  growth at 0.1 µM: 95%
Malme-3M
  growth at 0.1 µM: 90%
BT-549
  growth at 0.01 µM: 108%
CCRF-CEM [1]
  growth at 0.01 µM: 96%
UACC-62 [2]
  growth at 0.01 µM: 98%
UACC-62 [3]
  growth at 100 µM: 40%
SNB-19
  growth at 100 µM: 72%
COLO 205; read-out: GI50
  GI50: 3.37 µM
COLO 205; [14]
  CC50: > 100 µM
COLO 205; read-out: TGI
  TGI: > 100 µM
COLO 205; read-out: pGI50 (converted)
  GI50: 33.9 µM
COLO 205; [15]
  CC50: > 100 µM
COLO 205; read-out: pTGI (converted)
  TGI: > 100 µM
OVCAR-8
  growth at 1 µM: 93%
SF-268 [4]
  growth at 100 µM: 58%
LOX IMVI
  growth at 0.1 µM: 95%
OVCAR-4 [5]
  growth at 0.1 µM: 95%
PC-3
  growth at 0.01 µM: 94%
OVCAR-4 [6]; read-out: GI50
  GI50: > 100 µM
OVCAR-4 [6]; [14]
  CC50: > 100 µM
OVCAR-4 [6]; read-out: TGI
  TGI: > 100 µM
OVCAR-4 [6]; read-out: pGI50 (converted)
  GI50: > 100 µM
OVCAR-4 [6]; [15]
  CC50: > 100 µM
OVCAR-4 [6]; read-out: pTGI (converted)
  TGI: > 100 µM
NCI-H522; read-out: GI50
  GI50: 1.9 µM
NCI-H522; [14]
  CC50: > 100 µM
NCI-H522; read-out: TGI
  TGI: > 100 µM
NCI-H522; read-out: pGI50 (converted)
  GI50: 2 µM
NCI-H522; [15]
  CC50: > 100 µM
NCI-H522; read-out: pTGI (converted)
  TGI: > 100 µM
CCRF-CEM [7]
  growth at 100 µM: 32%
U-251 [8]
  growth at 0.1 µM: 91%
U-251 [9]
  growth at 100 µM: 41%
K562; read-out: GI50
  GI50: 4.59 µM
K562; read-out: LC50
  LC50: > 100 µM
K562; read-out: TGI
  TGI: > 100 µM
K562; read-out: pGI50 (converted)
  GI50: 4.68 µM
K562; read-out: pLC50 (converted)
  LC50: > 100 µM
K562; read-out: pTGI (converted)
  TGI: > 100 µM
SF-268 [10]; read-out: GI50
  GI50: > 100 µM
SF-268 [10]; [14]
  CC50: > 100 µM
SF-268 [10]; read-out: TGI
  TGI: > 100 µM
SF-268 [10]; read-out: pGI50 (converted)
  GI50: > 100 µM
SF-268 [10]; [15]
  CC50: > 100 µM
SF-268 [10]; read-out: pTGI (converted)
  TGI: > 100 µM
OVCAR-5 [11]
  growth at 100 µM: 59%
UACC-62 [12]
  IC50: 8.04 µM
UACC-62 [12]; read-out: GI50
  GI50: 0.04 µM
UACC-62 [12]; [14]
  CC50: > 100 µM
UACC-62 [12]; read-out: TGI
  TGI: > 100 µM
UACC-62 [12]; read-out: pGI50 (converted)
  GI50: 8.13 µM
UACC-62 [12]; [15]
  CC50: > 100 µM
UACC-62 [12]; read-out: pTGI (converted)
  TGI: > 100 µM
OVCAR-5 [13]; read-out: GI50
  GI50: > 100 µM
OVCAR-5 [13]; [14]
  CC50: > 100 µM
OVCAR-5 [13]; read-out: TGI
  TGI: > 100 µM
OVCAR-5 [13]; read-out: pGI50 (converted)
  GI50: > 100 µM
OVCAR-5 [13]; [15]
  CC50: > 100 µM
OVCAR-5 [13]; read-out: pTGI (converted)
  TGI: > 100 µM
HCT-116
  growth at 100 µM: 22%
SK-MEL-28
  growth at 100 µM: 75%
